What was measured:
Format in all cases: biochemical
Hck-1 = target: T1, Hck-1 (Homo sapiens, UniProt P08631); assay: Kinase inhibition assay (33P transfer), Hck; settings: Table 6, Hck-1 kinase inhibition class
T1 construct: Kinases are expressed as either kinase domains or full length constructs; made in house

Itk = target: T2, Itk (Homo sapiens, UniProt Q08881); assay: Kinase inhibition assay (33P transfer), Itk; settings: Table 3; read-out: Itk-1
T2 construct: Kinases are expressed as either kinase domains or full length constructs; made in house
T2 sequence (Q08881 1-620): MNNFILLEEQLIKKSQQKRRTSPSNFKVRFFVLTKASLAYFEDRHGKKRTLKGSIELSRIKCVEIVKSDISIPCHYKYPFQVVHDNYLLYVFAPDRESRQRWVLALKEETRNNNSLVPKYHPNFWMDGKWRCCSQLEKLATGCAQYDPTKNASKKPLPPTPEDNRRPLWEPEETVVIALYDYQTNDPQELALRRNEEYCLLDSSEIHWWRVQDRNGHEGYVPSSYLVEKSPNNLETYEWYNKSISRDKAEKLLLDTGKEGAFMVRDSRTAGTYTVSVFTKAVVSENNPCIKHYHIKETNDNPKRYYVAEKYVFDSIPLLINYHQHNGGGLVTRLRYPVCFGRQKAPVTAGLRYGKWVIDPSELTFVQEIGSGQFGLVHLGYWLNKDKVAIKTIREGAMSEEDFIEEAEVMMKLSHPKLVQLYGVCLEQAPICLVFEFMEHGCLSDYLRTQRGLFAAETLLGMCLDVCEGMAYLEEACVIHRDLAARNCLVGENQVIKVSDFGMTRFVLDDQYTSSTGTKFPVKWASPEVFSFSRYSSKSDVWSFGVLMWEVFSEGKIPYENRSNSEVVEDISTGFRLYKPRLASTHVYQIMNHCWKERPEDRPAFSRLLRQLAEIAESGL
Method in brief: (§1)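 GST/His-fusion kinases, E. coli or High Five expressed, affinity purified; 33P-ATP, plate-coated poly(Glu,Tyr) 4:1 or poly(Arg,Ser) 3:1; 0.5% H3PO4 wash, scintillant, LSC.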

Src = target: T3, Src (Homo sapiens, UniProt P12931); assay: Kinase inhibition assay (33P transfer), Src; settings: Table 6, Src-1 kinase inhibition class
T3 construct: Kinases are expressed as either kinase domains or full length constructs; made in house
Method in brief: as §1

ErbB2 = target: T4, ErbB2 (Homo sapiens, UniProt P04626); assay: Kinase inhibition assay (33P transfer), ErbB2; settings: read-out: ErbB2-2
T4 construct: Kinases are expressed as either kinase domains or full length constructs; made in house
Method in brief: as §1

PDGFRB = target: T5, PDGFRB (Homo sapiens, UniProt P09619); assay: Kinase inhibition assay (33P transfer), PDGFRB; settings: read-out: PDGFRB-1
T5 construct: Kinases are expressed as either kinase domains or full length constructs; made in house

Kdr = target: T6, Kdr (Homo sapiens, UniProt P35968); assay: Kinase inhibition assay (33P transfer), Kdr; settings: Table 3; read-out: KDR-1
T6 construct: Kinases are expressed as either kinase domains or full length constructs; made in house
Method in brief: (§2)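 Steps: express kinase as GST or polyHistidine fusion in E. coli or High Five cells; optionally co-express or mix with regulatory polypeptides; incubate with 33P-ATP and plate-attached poly(Glu,Tyr) 4:1 or poly(Arg,Ser) 3:1; wash with 0.5% phosphoric acid; count by liquid scintillation.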

Zap-70 = target: T7, Zap-70 (Homo sapiens, UniProt P43403); assay: Kinase inhibition assay (33P transfer), Zap-70; settings: Table 3; read-out: Zap-1
T7 construct: Kinases are expressed as either kinase domains or full length constructs; made in house
T7 sequence (P43403 1-619): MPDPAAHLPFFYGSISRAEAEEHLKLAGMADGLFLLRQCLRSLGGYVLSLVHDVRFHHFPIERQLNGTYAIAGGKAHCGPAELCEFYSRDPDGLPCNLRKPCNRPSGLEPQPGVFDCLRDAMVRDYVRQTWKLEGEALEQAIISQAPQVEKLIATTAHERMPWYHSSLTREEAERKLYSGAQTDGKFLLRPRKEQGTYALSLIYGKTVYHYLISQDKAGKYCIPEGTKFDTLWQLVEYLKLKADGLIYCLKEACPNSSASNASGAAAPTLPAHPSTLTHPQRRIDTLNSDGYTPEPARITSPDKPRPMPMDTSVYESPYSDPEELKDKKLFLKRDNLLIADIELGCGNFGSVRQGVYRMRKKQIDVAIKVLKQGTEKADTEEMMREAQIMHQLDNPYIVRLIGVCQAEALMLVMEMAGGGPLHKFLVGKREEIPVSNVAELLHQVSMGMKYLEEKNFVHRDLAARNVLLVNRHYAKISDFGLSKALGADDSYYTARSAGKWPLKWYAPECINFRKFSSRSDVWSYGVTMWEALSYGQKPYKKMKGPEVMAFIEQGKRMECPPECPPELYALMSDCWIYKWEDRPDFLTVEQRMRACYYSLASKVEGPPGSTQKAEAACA
Method in brief: as §2

T4 sequence (P04626 23-1255, species assumed): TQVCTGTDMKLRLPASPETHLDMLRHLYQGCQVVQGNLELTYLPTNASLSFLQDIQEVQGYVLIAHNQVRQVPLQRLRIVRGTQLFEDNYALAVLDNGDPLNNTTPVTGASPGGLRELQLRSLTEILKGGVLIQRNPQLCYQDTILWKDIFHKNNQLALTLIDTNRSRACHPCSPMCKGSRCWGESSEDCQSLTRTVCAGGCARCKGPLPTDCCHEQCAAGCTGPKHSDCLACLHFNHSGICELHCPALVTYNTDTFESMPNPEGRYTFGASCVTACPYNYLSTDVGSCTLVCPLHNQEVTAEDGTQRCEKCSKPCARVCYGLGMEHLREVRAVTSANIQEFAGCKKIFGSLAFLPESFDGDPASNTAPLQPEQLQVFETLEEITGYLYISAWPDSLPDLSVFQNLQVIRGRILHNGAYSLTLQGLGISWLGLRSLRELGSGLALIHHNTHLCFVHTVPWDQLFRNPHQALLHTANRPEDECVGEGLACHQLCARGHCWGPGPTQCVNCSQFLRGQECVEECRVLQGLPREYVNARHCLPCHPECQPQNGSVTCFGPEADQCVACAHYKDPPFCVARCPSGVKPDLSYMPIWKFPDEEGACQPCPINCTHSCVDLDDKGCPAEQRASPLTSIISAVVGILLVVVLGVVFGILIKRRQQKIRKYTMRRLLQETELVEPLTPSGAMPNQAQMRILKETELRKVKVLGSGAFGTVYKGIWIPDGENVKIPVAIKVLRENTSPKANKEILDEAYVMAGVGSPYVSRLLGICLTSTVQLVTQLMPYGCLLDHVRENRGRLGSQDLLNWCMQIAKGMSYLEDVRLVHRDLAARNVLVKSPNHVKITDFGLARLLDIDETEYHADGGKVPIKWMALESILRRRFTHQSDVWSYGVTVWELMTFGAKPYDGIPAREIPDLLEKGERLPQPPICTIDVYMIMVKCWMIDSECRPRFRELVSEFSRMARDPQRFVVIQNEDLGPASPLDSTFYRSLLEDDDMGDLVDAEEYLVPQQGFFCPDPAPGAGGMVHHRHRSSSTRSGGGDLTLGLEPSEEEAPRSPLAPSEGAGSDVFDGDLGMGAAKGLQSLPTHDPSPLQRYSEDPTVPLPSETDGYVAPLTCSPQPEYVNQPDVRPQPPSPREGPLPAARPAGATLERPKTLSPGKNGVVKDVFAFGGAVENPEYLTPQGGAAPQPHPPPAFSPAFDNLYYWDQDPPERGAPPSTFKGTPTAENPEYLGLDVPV
T6 sequence (P35968 20-1356, species assumed): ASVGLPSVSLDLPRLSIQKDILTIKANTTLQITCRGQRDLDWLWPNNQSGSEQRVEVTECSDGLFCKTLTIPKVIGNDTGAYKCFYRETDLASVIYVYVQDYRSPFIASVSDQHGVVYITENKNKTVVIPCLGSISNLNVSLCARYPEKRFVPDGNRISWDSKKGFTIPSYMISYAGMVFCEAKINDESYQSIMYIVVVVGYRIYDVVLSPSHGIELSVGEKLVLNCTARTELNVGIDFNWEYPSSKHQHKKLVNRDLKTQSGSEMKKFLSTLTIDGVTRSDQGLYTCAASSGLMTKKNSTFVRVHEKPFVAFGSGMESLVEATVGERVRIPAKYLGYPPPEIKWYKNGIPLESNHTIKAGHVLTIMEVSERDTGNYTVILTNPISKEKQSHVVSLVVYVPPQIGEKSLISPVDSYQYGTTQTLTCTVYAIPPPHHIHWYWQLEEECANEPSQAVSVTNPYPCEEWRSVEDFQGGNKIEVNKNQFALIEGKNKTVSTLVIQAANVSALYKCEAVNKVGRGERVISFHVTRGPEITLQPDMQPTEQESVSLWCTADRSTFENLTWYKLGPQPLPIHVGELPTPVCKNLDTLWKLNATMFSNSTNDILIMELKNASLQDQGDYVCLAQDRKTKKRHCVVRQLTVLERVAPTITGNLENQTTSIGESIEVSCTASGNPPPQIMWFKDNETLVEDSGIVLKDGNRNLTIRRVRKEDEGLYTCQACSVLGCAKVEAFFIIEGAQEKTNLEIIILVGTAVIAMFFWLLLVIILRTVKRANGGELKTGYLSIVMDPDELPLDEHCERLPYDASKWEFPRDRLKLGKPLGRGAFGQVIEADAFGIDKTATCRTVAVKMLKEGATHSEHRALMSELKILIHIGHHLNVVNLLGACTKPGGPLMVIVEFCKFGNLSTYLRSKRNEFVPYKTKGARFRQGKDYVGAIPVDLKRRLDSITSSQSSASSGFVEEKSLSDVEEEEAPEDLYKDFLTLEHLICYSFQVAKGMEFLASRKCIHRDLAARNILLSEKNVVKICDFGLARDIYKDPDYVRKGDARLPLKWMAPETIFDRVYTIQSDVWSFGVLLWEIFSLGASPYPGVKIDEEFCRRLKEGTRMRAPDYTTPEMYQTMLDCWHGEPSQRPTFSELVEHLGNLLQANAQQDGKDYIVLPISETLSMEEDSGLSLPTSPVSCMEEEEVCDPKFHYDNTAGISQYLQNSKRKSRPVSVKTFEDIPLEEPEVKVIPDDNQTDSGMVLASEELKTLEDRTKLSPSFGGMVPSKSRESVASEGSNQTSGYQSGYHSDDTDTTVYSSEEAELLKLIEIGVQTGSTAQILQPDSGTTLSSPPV
T3 sequence (P12931 whole entry, species assumed, the tested form may be a part): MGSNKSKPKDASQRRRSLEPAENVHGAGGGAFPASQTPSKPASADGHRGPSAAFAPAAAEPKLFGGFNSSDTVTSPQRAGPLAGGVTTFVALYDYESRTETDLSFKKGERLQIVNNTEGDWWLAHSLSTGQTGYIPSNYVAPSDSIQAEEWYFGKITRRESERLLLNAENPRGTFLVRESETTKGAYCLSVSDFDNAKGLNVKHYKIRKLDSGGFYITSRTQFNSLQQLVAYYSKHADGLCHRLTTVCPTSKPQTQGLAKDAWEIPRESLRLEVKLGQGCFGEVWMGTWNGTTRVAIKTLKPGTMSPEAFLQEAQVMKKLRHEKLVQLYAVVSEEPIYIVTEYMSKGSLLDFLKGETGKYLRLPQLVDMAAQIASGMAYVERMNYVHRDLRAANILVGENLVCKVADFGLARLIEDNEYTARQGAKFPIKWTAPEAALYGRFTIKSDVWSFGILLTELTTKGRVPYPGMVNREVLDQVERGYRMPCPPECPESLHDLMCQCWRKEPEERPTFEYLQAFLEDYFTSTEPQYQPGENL
T1 sequence (P08631 whole entry, the tested form may be a part): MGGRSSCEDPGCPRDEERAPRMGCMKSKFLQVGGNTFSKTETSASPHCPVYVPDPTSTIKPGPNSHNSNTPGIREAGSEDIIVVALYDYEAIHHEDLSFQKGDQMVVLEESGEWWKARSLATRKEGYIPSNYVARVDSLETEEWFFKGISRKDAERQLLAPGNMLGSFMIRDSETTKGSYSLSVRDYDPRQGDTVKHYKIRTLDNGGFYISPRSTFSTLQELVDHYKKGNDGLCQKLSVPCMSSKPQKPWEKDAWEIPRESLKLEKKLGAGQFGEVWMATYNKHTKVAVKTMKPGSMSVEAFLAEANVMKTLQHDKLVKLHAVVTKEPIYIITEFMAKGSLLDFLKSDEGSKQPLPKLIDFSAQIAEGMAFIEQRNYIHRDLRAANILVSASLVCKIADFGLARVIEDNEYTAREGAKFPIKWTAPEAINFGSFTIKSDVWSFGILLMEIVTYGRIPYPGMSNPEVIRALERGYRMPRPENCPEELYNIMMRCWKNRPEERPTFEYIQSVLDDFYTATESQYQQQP
T5 sequence (P09619 33-1106, species assumed): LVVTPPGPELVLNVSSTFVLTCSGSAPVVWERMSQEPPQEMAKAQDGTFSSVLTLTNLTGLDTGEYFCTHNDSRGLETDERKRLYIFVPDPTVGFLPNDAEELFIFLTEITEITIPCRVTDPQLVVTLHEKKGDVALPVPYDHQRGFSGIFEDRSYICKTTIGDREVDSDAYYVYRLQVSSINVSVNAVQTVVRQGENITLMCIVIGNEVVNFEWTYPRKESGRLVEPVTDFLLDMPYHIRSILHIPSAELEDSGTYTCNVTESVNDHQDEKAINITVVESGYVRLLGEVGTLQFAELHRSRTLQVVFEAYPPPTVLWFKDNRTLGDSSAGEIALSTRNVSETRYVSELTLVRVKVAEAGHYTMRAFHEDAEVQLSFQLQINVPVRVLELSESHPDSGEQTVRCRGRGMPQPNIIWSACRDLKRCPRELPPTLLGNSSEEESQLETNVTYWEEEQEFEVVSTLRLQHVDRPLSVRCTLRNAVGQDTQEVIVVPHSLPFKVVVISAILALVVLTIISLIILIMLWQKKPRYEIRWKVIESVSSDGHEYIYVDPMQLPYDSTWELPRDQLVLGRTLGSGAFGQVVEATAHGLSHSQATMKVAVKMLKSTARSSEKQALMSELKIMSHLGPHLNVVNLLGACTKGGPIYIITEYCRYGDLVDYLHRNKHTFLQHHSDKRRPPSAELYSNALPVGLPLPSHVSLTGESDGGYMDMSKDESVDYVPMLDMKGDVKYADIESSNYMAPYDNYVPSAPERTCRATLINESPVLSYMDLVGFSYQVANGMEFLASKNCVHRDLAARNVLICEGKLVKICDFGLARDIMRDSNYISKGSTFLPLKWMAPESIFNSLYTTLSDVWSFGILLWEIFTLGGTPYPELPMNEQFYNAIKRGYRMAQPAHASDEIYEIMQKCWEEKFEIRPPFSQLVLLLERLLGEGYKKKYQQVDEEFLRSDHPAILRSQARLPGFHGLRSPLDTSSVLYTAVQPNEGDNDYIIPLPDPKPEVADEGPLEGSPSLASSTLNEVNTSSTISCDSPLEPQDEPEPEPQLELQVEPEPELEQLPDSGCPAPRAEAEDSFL

Structure (SMILES) | IC50 (Hck-1) | IC50 (Itk) | IC50 (Src) | IC50 (ErbB2) | IC50 (PDGFRB) | IC50 (Kdr) | IC50 (Zap-70)
COCCOc1ccc(Nc2ncnc(Nc3ccc4[nH]ccc4c3)n2)cc1OCCOC [Compound 321] | > 9.99 µM | > 9.99 µM | 0.888 to 5.33 µM | 0.888 to 5.33 µM | 0.888 to 5.33 µM | < 0.888 µM | > 9.99 µM
COc1cc(Nc2ncnc(Nc3cccc(Cl)c3)n2)cc(OC)c1OC [Compound 135] | > 11.6 µM | 6.19 to 9.02 µM | < 1.03 µM | < 1.03 µM | < 1.03 µM | < 1.03 µM | 9.02 to 11.6 µM
COc1cc(Nc2ncnc(Nc3ccc(C(=O)O)cc3)n2)cc(OC)c1OC [Compound 104] | > 11.3 µM | > 11.3 µM | 6.04 to 8.81 µM | 1.01 to 6.04 µM | 1.01 to 6.04 µM | 1.01 to 6.04 µM | > 11.3 µM

From US7074789B2, “Kinase inhibitors” (Amgen Inc., priority 1999, dated 2006)
